{"source": "the supplement of paper PMC3974653", "note": "Counter-ions that a name gives are not always drawn.", "data": [{"test_system": "MTT (mouse pheochromocytoma)", "test": "IC50 of cell viability (ATP content)", "conditions": "(24 or 48 h)", "in_short": "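Library compounds were tested at 8 final concentrations (0.5 nM to 46 µM) on MTT mouse pheochromocytoma cells for 24 or 48 hrs, with readout by CellTiter-Glo ATP luminescence. Signals were normalised with positive-control wells at 100% and DMSO wells at 0%. IC50 values were obtained by a four-parameter logistic fit.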", "units": {"IC50 of cell viability": "µM"}, "values": [{"smiles": "O=C(/C=C/c1ccccc1)OCc1ccccc1", "note": "[BENZYL CINNAMATE]", "IC50 of cell viability": "> 46"}, {"smiles": "O=C(OCc1ccccc1)c1cccnc1", "note": "[BENZYL NICOTINATE]", "IC50 of cell viability": "> 46"}, {"smiles": "CC(C)COCC(CN(Cc1ccccc1)c1ccccc1)N1CCCC1", "note": "(configuration not stated) [BEPRIDIL]", "IC50 of cell viability": "> 46"}, {"smiles": "CC#CC[C@@H](C)[C@@H](O)/C=C/[C@H]1[C@H]2c3cccc(CCCC(=O)[O-])c3O[C@H]2C[C@@H]1O", "note": "[BERAPROST SODIUM]", "IC50 of cell viability": "> 46"}, {"smiles": "C[N+](C)(C)CC(=O)[O-].Cl", "note": "[BETAINE HYDROCHLORIDE]", "IC50 of cell viability": "> 46"}, {"smiles": "O=C(O)CCNC(=O)c1ccccc1", "note": "[BETAMIPRON]", "IC50 of cell viability": "> 46"}, {"smiles": "CCC(=O)OC1(c2ccccc2)CCN(C)CC1C", "note": "(configuration not stated) [BETAPRODINUM]", "IC50 of cell viability": "> 46"}, {"smiles": "CC(C)NCC(O)COc1ccc(CCOCC2CC2)cc1", "note": "(configuration not stated) [BETAXOLOL]", "IC50 of cell viability": "> 46"}, {"smiles": "C[N+]1(C)CCCCC1COC(=O)C(O)(c1ccccc1)c1ccccc1", "note": "(configuration not stated) [BEVONIUM METHYLSULFATE]", "IC50 of cell viability": "> 46"}, {"smiles": "C=C(c1ccc(C(=O)O)cc1)c1cc2c(cc1C)C(C)(C)CCC2(C)C", "note": "[BEXAROTENE]", "IC50 of cell viability": "> 46"}, {"smiles": "CN1CCC(Nc2ncc3ncnc(Nc4ccc(F)c(Cl)c4)c3n2)CC1", "note": "[BIBX 1382 dihydrochloride]", "IC50 of cell viability": "> 46"}, {"smiles": "c1ccc(-c2ccc(C(c3ccccc3)n3ccnc3)cc2)cc1", "note": "(configuration not stated) [BIFONAZOLE]", "IC50 of cell viability": "> 46"}, {"smiles": "O=C(O)Cc1cccc(-c2cc(CCCCCCc3ccc(O[C@H]4O[C@H](CO)[C@@H](O)[C@H](O)[C@@H]4O)c(-c4cccc(CC(=O)O)c4)c3)ccc2O[C@H]2O[C@H](CO)[C@@H](O)[C@H](O)[C@@H]2O)c1", "note": "[BIMOSIAMOSE DISODIUM]", "IC50 of cell viability": "> 46"}, {"smiles": "CC(C)=CC1C(C(=O)OCc2coc(Cc3ccccc3)c2)C1(C)C", "note": "(configuration not stated) [BIORESMETHRINUM]", "IC50 of cell viability": "> 46"}, {"smiles": "CC(C)=CCC[C@](C)(O)C1CC\\C(=C/C1)C", "note": "(some centres not stated) [BISABOLOL]", "IC50 of cell viability": "> 46"}, {"smiles": "[O]=[Bi][O][Bi]=[O]", "note": "[BISMUTH OXIDE]", "IC50 of cell viability": "> 46"}, {"smiles": "CC(C)(C)CC(C)(C)c1cc(Cc2cc(C(C)(C)CC(C)(C)C)cc(-n3nc4ccccc4n3)c2O)c(O)c(-n2nc3ccccc3n2)c1", "note": "[BISOCTRIZOLE]", "IC50 of cell viability": "> 46"}, {"smiles": "CCN1CCN(c2cc(-c3ccc(F)cc3)c3c(n2)CCCCCC3)CC1", "note": "[BLONANSERIN]", "IC50 of cell viability": "> 46"}, {"smiles": "O=C1Oc2ccccc2C(=O)C1C(CC(O)c1ccc(-c2ccc(Br)cc2)cc1)c1ccccc1", "note": "(configuration not stated) [BOLDO]", "IC50 of cell viability": "> 46"}, {"smiles": "Cc1cc2c(OCC(CNC(C)(C)C)OC(=O)c3ccccc3)cccc2[nH]1", "note": "(configuration not stated) [BOPINDOLOL]", "IC50 of cell viability": "> 46"}, {"smiles": "CC1(C)C2CC[C@]1(C)[C@@H](O)C2", "note": "[BORNEOL]", "IC50 of cell viability": "> 46"}, {"smiles": "CC(=O)OC1CC2CCC1(C)C2(C)C", "note": "(configuration not stated) [BORNYL ACETATE]", "IC50 of cell viability": "> 46"}, {"smiles": "COc1ccccc1Oc1c(N[S+](=O)([O-])c2ccc(C(C)(C)C)cc2)nc(-c2ncccn2)nc1OCCO", "note": "[BOSENTAN]", "IC50 of cell viability": "> 46"}, {"smiles": "Nc1c(CC(=O)[O-])cccc1C(=O)c1ccc(Br)cc1", "note": "[BROMFENAC SODIUM]", "IC50 of cell viability": "> 46"}, {"smiles": "CN(Cc1cc(Br)cc(Br)c1N)C1CCCCC1.Cl", "note": "[BROMHEXINE HYDROCHLORIDE]", "IC50 of cell viability": "> 46"}, {"smiles": "CCN(CC)CCNC(=O)c1cc(Br)c(N)cc1OC", "note": "[BROMOPRIDE]", "IC50 of cell viability": "> 46"}, {"smiles": "Nc1nc(O)c(Br)c(-c2ccccc2)n1", "note": "[BROPIRIMINE]", "IC50 of cell viability": "> 46"}, {"smiles": "COC1=CC2=C(C=C1OC)[C@@]34CCN5CC/6=C/COC7CC(=O)N2C3[C@H]7[C@@H]6C[C@H]45", "note": "(some centres not stated) [BRUCINE]", "IC50 of cell viability": "> 46"}, {"smiles": "CCC/C=C/C=C/C(=O)OC1/C(=C/C(=O)OC)CC2CC(C(C)O)OC(=O)CC(O)CC3CC(OC(C)=O)C(C)(C)C(O)(CC4C/C(=C/C(=O)OC)CC(C=CC(C)(C)C1(O)O2)O4)O3", "note": "(configuration not stated) [BRYOSTATIN-1]", "IC50 of cell viability": "> 46"}, {"smiles": "CCCC(=O)Nc1ncnc2c1ncn2C1OC2COP(=O)(O)OC2C1OC(=O)CCC", "note": "(configuration not stated) [BUCLADESINE]", "IC50 of cell viability": "> 46"}, {"smiles": "CCCCC1C(=O)NC(=O)N(C2CCCCC2)C1=O", "note": "(configuration not stated) [BUCOLOME]", "IC50 of cell viability": "> 46"}, {"smiles": "C[C@]12CC[C@H](O)C[C@H]1CCC1C2CC[C@]2(C)[C@@H](c3ccc(=O)oc3)C[C@H]3O[C@]132", "note": "(some centres not stated) [BUFOGENIN]", "IC50 of cell viability": "> 46"}, {"smiles": "CCCCNC(=N)NC(=N)N", "note": "[BUFORMIN HYDROCHLORIDE]", "IC50 of cell viability": "> 46"}, {"smiles": "CCCCN1CCCC1C(=O)Nc1c(C)cc(C)cc1C", "note": "(configuration not stated) [BUMECAINUM]", "IC50 of cell viability": "> 46"}, {"smiles": "CCCC(=O)N1CCCN(c2nc(N)c3cc(OC)c(OC)cc3n2)CC1", "note": "[BUNAZOSIN HYDROCHLORIDE]", "IC50 of cell viability": "> 46"}, {"smiles": "CCOC(=O)c1cnc2cc(OCC(C)C)c(OCC(C)C)cc2c1O", "note": "[BUQUINOLATE]", "IC50 of cell viability": "> 46"}, {"smiles": "O=C1CC2(CCCC2)CC(=O)N1CCCCN1CCN(c2ncccn2)CC1", "note": "[BUSPIRONE]", "IC50 of cell viability": "> 46"}, {"smiles": "CCCCOC(=O)c1ccc(N)cc1", "note": "[BUTAMBEN]", "IC50 of cell viability": "> 46"}, {"smiles": "CCC(C(=O)OCCN(CC)CC)c1ccccc1", "note": "(configuration not stated) [BUTETAMATUM]", "IC50 of cell viability": "> 46"}, {"smiles": "CCCC[N+]1(C)C2CC(OC(=O)C(CO)c3ccccc3)CC1C1OC12", "note": "(configuration not stated) [BUTYLSCOPOLAMMONIUM]", "IC50 of cell viability": "> 46"}, {"smiles": "CCOC(=O)O[C@@H](C)OC(=O)[C@@H]1[N@]2[C@@H](SC1(C)C)[C@H](NC(=O)[C@@H](N)C3=CC=CC=C3)C2=O", "note": "[Bacampicillin hydrochloride]", "IC50 of cell viability": "> 46"}, {"smiles": "CC[C@H](C)[C@H](N)\\C1=N\\[C@@H](CS1)C(=O)N[C@@H](CC(C)C)C(=O)N[C@@H](CCC(O)=O)C(=O)N[C@H]([C@@H](C)CC)C(=O)N[C@@H]2CCCCNC(=O)[C@@H](CC(N)=O)NC(=O)[C@@H](CC(O)=O)NC(=O)[C@@H](CC3=CN=C[NH]3)NC(=O)[C@@H](CC4=CC=CC=C4)NC(=O)[C@H](NC(=O)[C@@H](CCCN)NC2=O)[C@@H](C)CC", "note": "[Bacitracin]", "IC50 of cell viability": "> 46"}, {"smiles": "CN(C)C(=O)Oc1cc(OC(=O)N(C)C)cc([C@@H](O)CNC(C)(C)C)c1", "note": "[Bambuterol hydrochloride]", "IC50 of cell viability": "> 46"}, {"smiles": "CCCCNCC(O)c1ccc(O)cc1", "note": "(configuration not stated) [Bametano]", "IC50 of cell viability": "> 46"}, {"smiles": "CCN(CCO)CCn1c(Cc2ccccc2)nc2c1c(=O)n(C)c(=O)n2C", "note": "[Bamifylline Hydrochloride]", "IC50 of cell viability": "> 46"}, {"smiles": "CCC1(CC)C(=O)NC(=O)NC1=O", "note": "[Barbital]", "IC50 of cell viability": "> 46"}, {"smiles": "COC(=O)C1=C(C)NC(C)=C(C(=O)O[C@H]2CCN(Cc3ccccc3)C2)C1c1cccc([N+](=O)[O-])c1", "note": "(some centres not stated) [Barnidipine]", "IC50 of cell viability": "> 46"}, {"smiles": "Cc1c(-c2ccc(O)cc2)n(Cc2ccc(OCCN3CCCCCC3)cc2)c2ccc(O)cc12", "note": "[Bazedoxifene]", "IC50 of cell viability": "> 46"}, {"smiles": "CCC(=O)OCC(=O)C1(OC(=O)CC)C(C)CC2C3CCC/4=C/C(=O)/C=C\\C4(C)C3(Cl)C(O)CC12C", "note": "(configuration not stated) [Beclazone]", "IC50 of cell viability": "> 46"}, {"smiles": "C[C@H]1C[C@H]2[C@@H]3CCC4=CC(=O)C=C[C@]4(C)[C@@]3(Cl)[C@@H](O)C[C@]2(C)[C@@]1(O)C(=O)CO", "note": "[Beclomethasone]", "IC50 of cell viability": "> 46"}, {"smiles": "O=C(c1cc2ccccc2o1)N1CCN(Cc2ccccc2)CC1", "note": "[Befuralina]", "IC50 of cell viability": "> 46"}, {"smiles": "CCC1(C)CC(=O)NC(=O)C1", "note": "[Bemegride]", "IC50 of cell viability": "> 46"}, {"smiles": "O=C(O)c1ccc(N[C@@H]2OC[C@@H](O)[C@@H](O)[C@@H]2O)cc1", "note": "[Benaxibine]", "IC50 of cell viability": "> 46"}, {"smiles": "CC1=C(C\\C2=N\\CCN2)C3=C(S1)C=CC=C3.OC(=O)C(O)=O", "note": "[Benazoline oxalate]", "IC50 of cell viability": "> 46"}, {"smiles": "N[S+](=O)([O-])c1cc2c(cc1C(F)(F)F)N[C@H](Cc1ccccc1)N[S+]2(=O)[O-]", "note": "[Bendroflumethiazide]", "IC50 of cell viability": "> 46"}, {"smiles": "C/C(=C(/CCOP(=O)(O)O)SC(=O)c1ccccc1)N(C=O)Cc1cnc(C)nc1N", "note": "[Benfotiamine]", "IC50 of cell viability": "> 46"}, {"smiles": "CC(NNC(=O)c1ccccc1)c1ccccc1", "note": "(configuration not stated) [Benmoxin]", "IC50 of cell viability": "> 46"}, {"smiles": "CCCCOc1cc(C(=O)OCCN(CC)CC)ccc1N", "note": "[Benoxinate hydrochloride]", "IC50 of cell viability": "> 46"}, {"smiles": "O=C(CCCN1CCC(n2c(=O)[nH]c3ccccc32)CC1)c1ccc(F)cc1", "note": "[Benperidol]", "IC50 of cell viability": "> 46"}, {"smiles": "N[C@@H](CO)C(=O)NNCc1ccc(O)c(O)c1O", "note": "[Benserazide hydrochloride]", "IC50 of cell viability": "> 46"}, {"smiles": "O=C([O-])c1ccc(NC(=O)[C@H](Cc2ccc(O)cc2)NC(=O)c2ccccc2)cc1", "note": "[Bentiromide]", "IC50 of cell viability": "> 46"}, {"smiles": "O=Cc1ccccc1", "note": "[Benzaldehyde]", "IC50 of cell viability": "> 46"}]}]}
